Type in all cases: cell-based
In data set [1] the test system is Jurkat human T lymphoma cell line. In words: Annexin V Apoptosis Assay. Conditions: 24 h, dose-dependent, FIG. 1. The method, then: Test samples were diluted to 1 mM in complete tissue culture medium (RPMI 1640 medium plus 5% heat-inactivated fetal calf serum, 1% HEPES, 1% pen/strep, 1% glutamine). Aliquots were placed in microculture plates and serial dilutions were prepared so that the final concentration would encompass the range of 2 to 6,000 nM with half-log increments. Cells from an exponentially expanding culture of the Jurkat human T lymphoma cell line (#TIB-152 obtained from American Type Culture Collection, Manassas, Va.) were harvested, washed once by centrifugation, re-suspended in complete tissue culture medium, and further diluted to a concentration of 1×10^6 cells/ml. A volume of 100 μl of the cells (1×10^5 cells) was added to wells containing 100 μl of the diluted compounds, and the plates were incubated at 37° C. in a 5% CO2 incubator.
After 24 hours, the plates were centrifuged to pellet the cells, and the cells were washed twice with 2% heat-inactivated fetal calf serum in PBS. […] The contents of the wells were individually transferred into test tubes, and apoptosis was analyzed using a FACSCalibur flow cytometer (BD Immunocytometry Systems, San Jose, Calif.). Cells positive for Annexin V binding were considered to be apoptotic, and the data were calculated as percent apoptotic cells. […]

Data set [2] has as its system IL-2 production in Jurkat cells. In words: IL-2 Inhibition Assay. Conditions: without previous incubation in human serum, FIG. 4. The procedure: Test compounds were diluted to 1 mM in complete tissue culture medium. Aliquots were placed in microculture plates coated with anti-CD3 antibody (used to stimulate the production of IL-2 by Jurkat cells), and serial dilutions were prepared so that the final concentration would encompass the range of 0.001 to 10,000 nM in log increments.
Invention compound 14-acetyl-5,6-didehydrotriptolide (designated PG746) was tested with and without a previous 16-hr incubation in human serum. Such incubation is expected to substantially convert the 14-acetyl group of PG746 to a 14-hydroxy group.
Cells from an exponentially expanding culture of Jurkat human T cell line (#TIB-152 obtained from American Type Culture Collection, Manassas, Va.) were harvested, washed once by centrifugation, re-suspended in complete tissue culture medium, and diluted to a concentration of 10^7 cells/ml. A volume of 50 μl of Jurkat cells was added to wells containing 100 μl of the diluted compounds, and the cells were stimulated with 50 ng/ml PMA and […] PHA. The plates were incubated at 37° C. in a 5% CO2 incubator. […] The stored supernatants were analyzed for human IL-2 concentration using the Luminex 100 (Luminex Corporation, Austin, Tex.), Luminex microspheres coupled with anti-IL-2 capture antibody, and fluorochrome-coupled anti-IL-2 detection antibody. The data were expressed as pg/ml of IL-2. […]

Data set [3] deals with human T cell lymphoma (Jurkat) cells. The experiment in a line: Cytotoxicity (MTT) Assay. Particulars: FIG. 2. The procedure: Test compounds were dissolved in DMSO at a concentration of 20 mM. Further dilutions were done in RPMI1640 medium (GIBCO, Rockville, Md.) supplemented with 10% Fetal Calf Serum (HyClone Laboratories, Logan, Utah). Invention compound 14-acetyl-5,6-didehydrotriptolide (designated PG746) was tested with and without a previous 16-hr incubation in human serum. Such incubation is expected to substantially convert the 14-acetyl group of PG746 to a 14-hydroxy group.
Cytotoxicity of the compounds was determined in a standard MTT assay using Cell Proliferation Kit I (#1 465 007, Roche Diagnostics, Mannheim, Germany). Accordingly, human T cell lymphoma (Jurkat) cells (4×10^5 per well) were cultured for 24 h, in 96-well tissue culture plates, in the presence of serial three-fold dilutions of test compounds or medium containing the same concentration of DMSO as in the test samples at each dilution point. The cultures were then supplemented with 10 μl/well MTT reagent for 4 h and then with 0.1 ml/well solubilizing reagent for an additional 16 h. Optical density at 570 nm was measured on a ThermoScan microplate reader (Molecular Devices, Menlo Park, Calif.).
The data is presented as OD570 values versus concentration of the compounds. The results for invention compound 14-acetyl-5,6-didehydrotriptolide (designated PG746) and triptolide (designated PG490) are given in FIG. 2.

Each structure is given as a SMILES string.

On to `CC(C)[C@]12O[C@H]1[C@@H]1O[C@]13[C@]1(O[C@H]1C[C@@]1(O)C4=C(CC[C@]31C)C(=O)OC4)[C@@H]2O` [PG701, 5-α-hydroxytriptolide], for which the “induction of apoptosis (Annexin V positive cells)” value in data set [1] is “induced apoptosis in Jurkat cells”.
With `CC(=O)O[C@@H]1[C@@]2(C(C)C)O[C@H]2[C@@H]2O[C@]23[C@]12O[C@H]2C=C1C2=C(CC[C@@]13C)C(=O)OC2` [PG746, 14-acetyl-5,6-didehydrotriptolide], the “inhibition of IL-2 production, activity relative to the medium control” value in data set [2] is listed as “no significant activity relative to the medium control”. In data set [3] (after incubation for 16 hours with human serum), the “concentrations at which the compound was clearly cytotoxic to Jurkat cells (MTT)” value was not below 1000 nM. The “cytotoxicity (MTT), activity relative to the medium control” value in data set [3] (in assay medium, without previous incubation in human serum) was “no significant activity relative to the medium control”.

Source of the values: patent publication US7820834B2, “Triptolide 5,6-derivatives as immunomodulators and anticancer agents” (Pharmagenesis, Inc., priority 2004, dated 2010).
